Experiments:
Format in all cases: cell-based, human
[1] = tested on: TGF-βRII protein expression; test: Surface staining / flow cytometry of TGF-βRII protein on CD4+CD25- T cells; details: CD4+CD25- T cells incubated 48 hours with ligand
Description: (§1) FIG. 3: TGF-βRII expression on effector T cells after NOTCH ligands exposure • A) CD4^+CD25^−T cells were purified using Miltenyi microbeads from PBMC and cultured for 3 hours in coated wells with anti-CD3 (200 ng/ml) and NOTCH ligands (5 μg/ml) or IgG control (5 μg/ml). Quantitative real-time PCR was performed to measure the transcripts levels of TGF-βRII. Data shown are mean±SEM and are representative of 4 independent experiments. * indicates P<0.05. • B) Protein levels of TGF-βRII in CD4^+CD25^−T cells stimulated to DL-1, DL-4 and Jagged-1 using FACS analysis. Mean of fluorescence are represented±SEM. * indicates P<0.05.
For surface staining, the cells were harvested, washed twice and resuspended in 1% FCS buffer. The cells were stained with mAbs for CD4 (Beckman Coulter), TGF-βRII (R&D) as per manufacturer's instructions for 20 min at 4° C. Cells were then analyzed by flow cytometry using FACScalibur™ and CellQuest™ software (Becton Dickinson, San Jose, Calif., USA).
TGF-βRII protein expression was assessed by flow cytometry. In these experiments, effector CD4^+CD25^− T cells were isolated and incubated for 48 hours in the presence of NOTCH ligands or IgG control.

TGF-βRII RNA expression = test: Quantitative real-time PCR of TGF-βRII transcripts in CD4+CD25- T cells; details: coated anti-CD3 (200 ng/ml) and ligand (5 μg/ml) for 3 hours
Description: as §1
CD4^+CD25^− T cells were cultured for 3 hours in coated wells with anti-CD3 (200 ng/ml) and NOTCH ligands (5 μg/ml) or IgG control (5 μg/ml). Total RNA was extracted with Trizol (Invitrogen) and purified by chloroform extraction. RNA was then reverse transcribed using 1 mM oligodT and the Superscript™ HH Rnase H-reverse transcriptase (Invitrogen Life technologies) according to the manufacturer's instructions. Quantitative PCR was performed in a LightCycler System (Roche diagnostics) using a SYBR Green PCR kit from Roche Diagnostics. The cDNA input for each population was normalized to obtain equivalent signals with Splicing Factor 3A1 (SF3A1) used as housekeeping gene. Primers used were: […]
Active TGF-β mediates its biological functions by binding to TGF-β type I and type II receptors (TGF-βRII). Therefore, the effects of NOTCH activation on TGF-βRII expression of effector T cells were first investigated. […] This effect is abrogated in the presence of GSI (P<0.05 for comparison with culture performed without GSI vehicle).

pSmad3 = test: Immunoblot for pSmad3 in CD4+CD25- T cells; details: 48 hours on coated ligand in the presence of TGF-β (5 ng/ml)
Description: FIG. 4: TGF-βRII function on effector T cells stimulated to NOTCH ligands • A) Western blot analysis was performed on CD4^+CD25^−T cells cultured for 48 hours in coated wells with anti-CD3 (200 ng/ml) and NOTCH ligands (5 μg/ml) in presence of TGF-β (5 ng/ml). The whole cell lysate was analysed by immunoblot for pSmad3 and b-actin was used as loading control. The experiment was repeated twice with similar results. […] Cells were analyzed 48 hours later and data normalized for β-galactosidase activity. Histograms show the luciferase activity in a representative experiment performed in PC12 with TβRII promoter-luciferase construct. The experiment was repeated 3 times with similar results.
CD4^+CD25^− T cells were stimulated with NOTCH Ligand during 2 days. 1 ng/ml of TGF-β was also added during 30 min to induce Smad3 phosphorylation. Cells were collected, washed and lysed with Tris HCL (20 mM) 0.5% SDS buffer in presence of DNase (benzonase), inhibitors of phosphatase and protease. 10 μg proteins were deposed for Western blot Analysis with following Antibodies: Anti-PhosphoSmad3, Smad3, Actine.
Given the above observations showing an upregulation of TGF-βRII following NOTCH activation, the inventors hypothesized that Jagged-1 and DL-4 led to an activation of TGF-β signalling in effector T cells. […]

| Molecule | TGF-βRII protein expression (MFI) [1] | TGF-βRII RNA expression, increase compared to IgG control (TGF-βRII RNA expression) | pSmad3 signal (immunoblot) (pSmad3) |
| --- | --- | --- | --- |
| Jagged-1: recombinant NOTCH ligand Jagged-1, used coated as Jagged-1-Fc (SEQ ID NO: 5) | 130 | 2.8 fold | strong pSmad3 signal |
| DL-1: recombinant NOTCH ligand Delta-like 1, used coated as DL-1-Fc (SEQ ID NO: 8) (protein, listed as Homo sapiens) MGSRCALALAVLSALLCQVWSSGVFELKLQEFVNKKGLLGNRNCCRGGAGPPPCACRTFFRVCLKHYQASVSPEPPCTYGSAVTPVLGVDSFSLPDGGGADSAFSNPIRFPFGFTWPGTFSLIIEALHTDSPDDLATENPERLISRLATQRHLTVGEEWSQDLHSSGRTDLKYSYRFVCDEHYYGEGCSVFCRPRDDAFGHFTCGERGEKVCNPGWKGPYCTEPICLPGCDEQHGFCDKPGECKCRVGWQGRYCDECIRYPGCLHGTCQQPWQCNCQEGWGGLFCNQDLNYCTHHKPCKNGATCTNTGQGSYTCSCRPGYTGATCELGIDECDPSPCKNGGSCTDLENSYSCTCPPGFYGKICELSAMTCADGPCFNGGRCSDSPDGGYSCRCPVGYSGFNCEKKIDYCSSSPCSNGAKCVDLGDAYLCRCQAGFSGRHCDDNVDDCASSPCANGGTCRDGVNDFSCTCPPGYTGRNCSAPVSRCEHAPCHNGATCHERGHRYVCECARGYGGPNCQFLLPELPPGPAVVDLTEKLEGQGGPFPWVAVCAGVILVLMLLLGCAAVVVCVRLRLQKHRPPADPCRGETETMNNLANCQREKDISVSIIGATQIKNTNKKADFHGDHSADKNGFKARYPAVDYNLVQDLKGDDTAVRDAHSKRDTKCQPQGSSGEEKGTPTTLRGGEASERKRPDSGCSTSKDTKYQSVYVISEEKDECVIATEV | 85 | did not significantly modify | weak pSmad3 signal |

Reference: patent US20150140043A1, “IMMUNOMODULATORY METHODS USING NOTCH AGONISTS” (INSTITUT NATIONAL DE LA SANTE DE LA RECHERCHE MEDICAL …, priority 2012, published 2015)
